Results from patent US20240124389A1, “COMPOUND OR SALT THEREOF, LIPID PARTICLES, AND PHARMACEUTICAL COMPOSITION” (FUJIFILM Corporation, priority 2021, published 2024).

How the values were obtained:
[1] = Particle size of EPO mRNA-encapsulating lipid particles; format: physicochemical
Protocol: (§1) The compounds described in Table 1, the neutral lipid, cholesterol (product name: Cholesterol HP; NIPPON FINE CHEMICAL CO., LTD.), and 1,2-dimyristoyl-rac-glycero-3-(methylpolyoxyethylene 2000) (hereinafter, called DMG-PEG2000) (product name: SUNBRIGHT® GM-020; NOF corporation) were dissolved in ethanol at a molar ratio in Table 1 such that the total lipid concentration became 20 mmol/L, thereby obtaining an oil phase.
(§2) As the neutral lipid, 1,2-distearoyl-sn-glycero-3-phosphocholine (product name: COATSOME® MC-8080; NOF corporation) (hereinafter, DSPC), or L-α-dioleoyl phosphatidylethanolamine (Hereinafter, DOPE) (product name: COATSOME® ME-8181; NOF corporation), or 1,2-dioleoyl-sn-glycero-3-phosphocholine (hereinafter, DOPC) (product name: COATSOME® MC-8181; NOF corporation) was used.
(§3) EPO mRNA (product name: CleanCap EPO mRNA (5moU); TriLink) was diluted with 50 mmol/L citrate buffer having a pH 4 such that the weight ratio of total lipid concentration to mRNA concentration is about 16:1 to 64:1, thereby obtaining a water phase. Then, the water phase and the oil phase were mixed together using NanoAssemblr (Precision NanoSystems) such that the volume ratio of water phase:oil phase was 3:1, and the mixed solution was 1.5-fold diluted with phosphate buffered saline (PBS), thereby obtaining a dispersion liquid of mRNA lipid particles. The dispersion liquid was dialyzed with a 10% aqueous sucrose solution using a dialysis cassette (Slide-A-Lyzer G2, MWCO: 10 kD, Thermo Fisher Scientific) to remove ethanol, thereby obtaining EPO mRNA-encapsulating lipid particles.
(§4) The particle size of the mRNA-encapsulating lipid particles was measured by 10-fold diluting the dispersion liquid of lipid particle with phosphate buffered saline (PBS) using Zeta-potential & Particle size Analyzer ELS-Z2 (Otsuka Electronics Co., Ltd.).

EPO mRNA = assay: mRNA encapsulation rate of EPO mRNA-encapsulating lipid particles; format: physicochemical
Protocol: as §1, §2, §3
(§5) 15 to 30 μL of a 3 mol/L aqueous sodium acetate solution and 4.5 to 9 μL of glycogen were added to 30 to 60 μL of the lipid particles retaining mRNA, and 0.75 to 1.5 mL of ethanol was added thereto, so that only the nucleic acids were precipitated while the lipid was dissolved. Then, the supernatant was removed by centrifugation. The precipitates were air-dried for 15 minutes or longer, then water was added thereto to redissolve the precipitates, and the concentration thereof was measured using Nanodrop NF1000 (Thermo Fisher Scientific), thereby quantifying the total mRNA concentration.
(§6) The mRNA concentration was quantified using a Quant-iT RiboGreen RNA Assay Kit (Thermo Fisher Scientific) according to the protocol. First, a 20×TE buffer included in the above-described kit was diluted with water, thereby obtaining a 1×TE buffer. TE represents Tris/EDTA (ethylenediaminetetraacetic acid). In order to quantify only mRNA in the outer water phase, the dispersion liquid of lipid particles retaining mRNA was 10,000-fold diluted with the 1×TE buffer. 100 μL of the 10,000-fold diluted dispersion liquid of lipid particles was put into a 96-well plate, then 100 μL of a RiboGreen reagent (reagent included in the Quanti-iT Ribogreen RNA Assay Kit described above) 2,000-fold diluted with the 1×TE buffer was added to a sample, and fluorescence (excitation wavelength: 485 nm, fluorescence wavelength: 535 nm) was measured using a plate reader Infinite F200 (TECAN), thereby quantifying the mRNA concentration in the outer water phase.
(§7) By using the quantification results of the total mRNA concentration and the mRNA concentration in the outer water phase that were obtained through the above steps, the mRNA encapsulation rate of the mRNA lipid particles was calculated according to the following Equation.
(§8) mRNA encapsulation rate (%)=(total mRNA concentration-mRNA concentration in outer water phase)/total mRNA concentration×100

human EPO = assay: Measurement of EPO enzyme activity (EPO protein in blood plasma of mice after intravenous administration of EPO mRNA lipid particles); format: in vivo; settings: C57BL/6J mice, tail-vein i.v., mRNA 0.1 mg/kg, plasma 20 to 24 hours
Protocol: as §1, §2, §3
The dispersion liquid of mRNA lipid particles prepared in above-described <Preparation of EPO mRNA-encapsulating lipid particles> was tail-vein intravenously administered to C57BL/6J mice at a mRNA dosage of 0.1 mg/kg. 20 to 24 hours after the administration, blood was collected from the caudal vena cava, thereby obtaining blood plasma. The human EPO enzyme activity was quantified by using the obtained blood plasma and ab119522 Erythropoietin (EPO) Human Elisa Kit (Abcam.plc). The quantitative value is described as a relative amount of EPO protein in a case where Comparative Example 1 is 1.

[2] = Particle size of FLuc mRNA-encapsulating lipid particles; format: physicochemical; settings: lipid/nucleic acid 32 wt/wt
Protocol: as §1, with “Table 2,” for “Table 1,”, “HP; NTPPON” for “HP; NIPPON”, “DMG-PEG2000)” for “DMG-PEG2000) (product name: SUNBRIGHT® GM-020; NOF corporation)”, “Table 2” for “Table 1”
(§9) As the neutral lipid, 1,2-distearoyl-sn-glycero-3-phosphocholine (product name: COATSOME® MC-8080; NOF corporation) was used in a case of Comparative Example 1, and L-α-dioleoylphosphatidylethanolamine (product name: COATSOME® MC-8181; NOF corporation) was used in a case other than Comparative Example 1.
as §3, with “FLuc” for “EPO”, “(5 moU);” for “(5moU);”, “19:1” for “16:1”, “64:1,” for “64:1, thereby”
as §4

FLuc mRNA [3] = assay: mRNA encapsulation rate of FLuc mRNA-encapsulating lipid particles; format: physicochemical; settings: aminolipid 45 / DOPE 10 / cholesterol 43.5 / DMG-PEG2000 1.5 mol %, lipid/nucleic acid 32 wt/wt
Protocol: as §1, with “Table 2,” for “Table 1,”, “HP; NTPPON” for “HP; NIPPON”, “DMG-PEG2000)” for “DMG-PEG2000) (product name: SUNBRIGHT® GM-020; NOF corporation)”, “Table 2” for “Table 1”
as §9
as §3, with “FLuc” for “EPO”, “(5 moU);” for “(5moU);”, “19:1” for “16:1”, “64:1,” for “64:1, thereby”
as §5, §6, §7, §8

[4] = Particle size of FLuc mRNA-encapsulating lipid particles; format: physicochemical; settings: aminolipid 45 / DOPC 10 / cholesterol 43.5 / DMG-PEG2000 1.5 mol %, lipid/nucleic acid 32 wt/wt
FLuc mRNA [5] = assay: mRNA encapsulation rate of FLuc mRNA-encapsulating lipid particles; format: physicochemical; settings: lipid/nucleic acid 32 wt/wt
[6] = aminolipid 50 / DOPE 10 / cholesterol 38.5 / DMG-PEG2000 1.5 mol %, lipid/nucleic acid 64 wt/wt
[7] = aminolipid 45 / DOPE 10 / cholesterol 43.5 / DMG-PEG2000 1.5 mol %
[8] = aminolipid 45 / DOPE 10 / cholesterol 43.5 / DMG-PEG2000 1.5 mol %, lipid/nucleic acid 64 wt/wt
[9] = aminolipid 45 / DOPC 10 / cholesterol 43.5 / DMG-PEG2000 1.5 mol %, lipid/nucleic acid 32 wt/wt
[10] = aminolipid 45 / DOPE 10 / cholesterol 43.5 / DMG-PEG2000 1.5 mol %, lipid/nucleic acid 32 wt/wt
[11] = aminolipid 45 / no neutral lipid / cholesterol 53.5 / DMG-PEG2000 1.5 mol %, lipid/nucleic acid 32 wt/wt
[12] = aminolipid 45 / neutral lipid — (composition printed 10) / cholesterol 53.5 / DMG-PEG2000 1.5 mol %

| Particle size [1, 6] | Nucleic acid encapsulation rate (EPO mRNA; [6]) | Particle size [2, 7] | Nucleic acid encapsulation rate (FLuc mRNA [3]) | Structure (SMILES) | Relative amount of EPO protein (with respect to Comparative Example 1) (human EPO; [6]) | also measured |
| --- | --- | --- | --- | --- | --- | --- |
|  |  | 170.5 nm | 100.0% | CCN(CC)CCN(CCOC(=O)OC(CCCC(=O)OCCCCCCCCSC)CCCC(=O)OCCCCCCCCSC)CCOC(=O)OC(CCCC(=O)OCCCCCCCCSC)CCCC(=O)OCCCCCCCCSC [Example 44, Bis(8-(methylthio)octyl) 11-(2-(diethylamino)ethyl)-5,17-bis(4-((8-(methylthio)octyl)oxy)-4-oxobutyl)-7,15-dioxo-6,8,14,16-tetraoxa-11-azahenicosanedioate] |  | Particle size [1, 8]: 201.9 nm; Nucleic acid encapsulation rate (EPO mRNA; [8]): 81.2%; Relative amount of EPO protein (with respect to Comparative Example 1) (human EPO; [8]): 1.39 |
| 147.2 nm | 93.8% | 141.1 nm | 90.1% | CCCCCCCOC(=O)CCC(CCC(=O)OCCCCCCC)OC(=O)OCCN(CCOC(=O)OC(CCC(=O)OCCCCCCC)CCC(=O)OCCCCCCC)CCN(CC)CC [Example 39, Diheptyl 10-(2-(diethylamino)ethyl)-4,16-bis(3-(heptyloxy)-3-oxopropyl)-6,14-dioxo-5,7,13,15-tetraox a-10-azanonadecanedioate] | 8.03 |  |
| 101.4 nm | 100.0% | 116 nm | 99.7% | CCCCCCCOC(=O)CCCC(CCCC(=O)OCCCCCCC)OC(=O)OCCN(CCCN(CC)CC)CCOC(=O)OC(CCCC(=O)OCCCCCCC)CCCC(=O)OCCCCCCC [Example 38, Diheptyl 11-(3-(diethylamino)propyl)-5,17-bis(4-(heptyloxy)-4-oxobutyl)-7,15-dioxo-6,8,14,16-tetraox a-11-azahenicosanedioate] | 2.13 |  |

The remaining lines, values behind:

| Structure (SMILES) | Particle size [1, 6] | Nucleic acid encapsulation rate (EPO mRNA; [6]) | Particle size [2, 7] | Nucleic acid encapsulation rate (FLuc mRNA [3]) | Relative amount of EPO protein (with respect to Comparative Example 1) (human EPO; [6]) | also measured |
| --- | --- | --- | --- | --- | --- | --- |
| CCCCCC(CCCCC)COC(=O)CCCC(CCCC)OC(=O)OCCN(CCOC(=O)OC(CCCC)CCCC(=O)OCC(CCCCC)CCCCC)CCN(CC)CC (centres unmarked) [Example 22, Bis(2-pentylheptyl) 5,17-dibutyl-11-(2-(diethylamino)ethyl)-7,15-dioxo-6,8,14,16-tetraoxa-11-azahenicosanedioate] | 78.3 nm | 98.6% | 95 nm | 98.7% | 4.69 |  |
| CCCCCC(CCCCC)COC(=O)CCCC(CCC)OC(=O)OCCN(CCCN(CC)CC)CCOC(=O)OC(CCC)CCCC(=O)OCC(CCCCC)CCCCC (centres unmarked) [Example 28, Bis(2-pentylheptyl) 11-(3-(diethylamino)propyl)-7,15-dioxo-5,17-dipropyl-6,8,14,16-tetraoxa-11-azahenicosanedi oate] |  |  | 82.9 nm | 100.0% |  | Particle size [1, 9]: 82.1 nm; Particle size [1, 10]: 115.7 nm; Particle size [1, 11]: 155.2 nm; Nucleic acid encapsulation rate (EPO mRNA; [9]): 99.2%; Nucleic acid encapsulation rate (EPO mRNA; [10]): 98.8%; Nucleic acid encapsulation rate (EPO mRNA; [11]): 99.2%; Relative amount of EPO protein (with respect to Comparative Example 1) (human EPO; [9]): 3.54; Relative amount of EPO protein (with respect to Comparative Example 1) (human EPO; [10]): 1.23; Relative amount of EPO protein (with respect to Comparative Example 1) (human EPO; [11]): 1.47; Particle size [2, 12]: 164.6 nm; Particle size [4]: 104.3 nm; Nucleic acid encapsulation rate (FLuc mRNA [5]; aminolipid 45 / DOPC 10 / cholesterol 43.5 / DMG-PEG2000 1.5 mol %): 99.1%; Nucleic acid encapsulation rate (FLuc mRNA [5]; [12]): 99.1% |
